We go through 2 compounds from patent US20230339896A1, “HPK1 INHIBITORS AND USES THEREOF” (QILU REGOR THERAPEUTICS INC., priority 2020, published 2023).

Assay [1] addresses HPK1 (Homo sapiens (Human), UniProt Q92918). The assay is described as follows: HPK1 biochemical assay (ADP-GLO Kinase Assay). The following applies: ADP-GLO, 10 µM ATP, MBP substrate; read-out: HPK1 IC50. From the text: This example used the ADP-GLO™ Kinase Assay to measure the effect of potential HPK1 inhibitor compounds on HPK1 kinase activity.
The ADP-GLO™ Kinase Assay (Promega Corp., Madison, WI) measures ADP formed from a kinase reaction. According to the manufacture, the ADP formed in a kinase assay is first converted into ATP, which is then used to generate light in a luciferase reaction. The luminescence generated correlates with kinase activity. An exemplary experimental setting is described below, though minor adjustments can be made in individual assays.
Serial 3-fold dilution of compoounds from 10 µM (top concentration) to 0.508 nM (lowest concentration). Positive control is 10 µM Reference + enzyme + substrate. Negative control is 1% DMSO + enzyme + substrate.
40 mM Tris pH7.5; 20 mM MgC12, 0.1 mg/ml BSA, 50 µM DTT Buffer stock
• 1) The compounds were diluted to 1 mM, by mixing 10 µL of 10 mM respective compound stocks with 90 µL of DMSO. • 2) The compounds were then diluted 3-fold for 10 doses (5 µL to 10 µL dilution) by BRAVO. The top compound conc. was 1 mM (100×), DMSO Conc. was 100%. • 3) Transfer 100 nL of each diluted compound sample to 384-well plate (Corning-4512) by ECHO. • 4) Centrifuge the plate at 1,500 rpm for 1 minute.
20 µM ATP, 0.2 µg/µL MBP in Kinase Buffer (final concentration: 10 µM ATP, 0.1 µg/µL MBP)
• 5. Preparation of 2× HPK1 working solution with assay buffer. HPK1 final concentration was 0.6 ng/µL. […] Add 5 µL/well of 2× HPK1 working solution, Centrifuge at 1,500 rpm for 1 minute. • 7. Add 5 µL/well of 2× ATP-Substrate, Centrifuge at 1,500 rpm for 1 minute. • 8. Incubate at 25° C. for 1 hour (or 6 hours for compounds with high potency). • 9. Add 5 µL/well ADP-GLO™ Reagent to stop the kinase reaction and deplete the unconsumed ATP. Centrifuge at 1,500 rpm for 1 minute. Incubate at 25° C. for 40 min. • 10. Add 10 µL of Kinase Detection Reagent to convert ADP to ATP. Centrifuge at 1,500 rpm for 1 minute. Incubate at 25° C. for 40 min. • 11. Record luminescence signal on an Envision plate reader (384-CTG).
The percent (%) inhibition at each concentration of compound is calculated based on and relative to the signal in the High and Low control wells contained within each assay plate. […] The concentrations and % inhibition values for tested compounds were plotted and the concentration of compound required for 50% inhibition (IC50) was determined with a Three-parameter logistic dose response equation. The endpoint value (IC50) for the reference peptide/compound was evaluated in each experiment as a quality control measure. If the endpoint value was within 3-fold of the expected value, then the experiment was deemed acceptable.
For orientation: ADP-Glo first removes unused ATP, then detects ADP through luciferase.

In assay [2] the test system is Human Pan T cells. The assay is described as follows: IL2 & IFN-γ released by human pan T cell (ELISA). Format: cell-based. The settings on record: for EC50 / Human Pan T cells EC2x (nM, IL-2): IL-2, anti-CD3/CD28 stimulation, 48 hours; for Human Pan T cells EC2x (nM, IL-2): concentration giving 200% response (2 folds) over DMSO control; for Max fold change: IL-2 response over DMSO control, human pan T cells. From the text: This example is an assay method that can be used to determine compound effects on IL2 & IFN-γ release using pan T cells and ELISA assay format.
Procedures for Pan T isolation and Reagent preparation (Day 0): • 1. Cell Growth Medium: • RPMI1640: ATCC, Cat# 30-2001 • 10% FBS: Gibco, Cat# 10099141 • 1% Pen-Strep: Gibco, Cat # 15140122 • 1% Non-essential amino: Gibco, Cat #11140050 • Beta- Mercaptoethanol: Gibco, Cat#21985023 • 2. Pan T isolation buffer preparation: • Prepare a solution containing phosphate-buffered saline (PBS), pH 7.2, 0.5% bovine serum albumin (BSA), and 2 mM EDTA by diluting MACS® BSA Stock Solution (# 130-091-376) 20 times with autoMACS® Rinsing Solution. Keep buffer at 4° C. Degas buffer before use, as air bubbles could block the column.
• 3. Thawing of frozen PBMC • 1) Pre-heat medium at 37° C. water bath. • 2) Rapidly thaw cells in 37° C. water bath. • 3) Add the pre-warmed medium into 15 mL tube. Transfer cells to the tube. • 4) 300 × g centrifuge for 8 min. (centrifuge increase 0, decrease 0). • 5) Wash the PBMC using Rinsing buffer. • 6) Centrifuge PBMC at 300 × g for 8 min, wash it twice (centrifuge increase 9, decrease 1). • 7) Resuspend the cells with Pan T cells isolation buffer and count cells number. • 4. Pan T cells isolation: • Cell staining with microbead cocktail • 1) Prepare cells and determine cell number. Filter cells by 70 µm cell strainer. • 2) Resuspend cell pellet in 40 µL of buffer per 10^7 total cells. • 3) Add 10 µL of Pan T Cell Biotin-Antibody Cocktail per 10^7 total cells. • 4) Mix well and incubate for 10 minutes in the refrigerator (ice). • 5) Add 30 µL of buffer per 10^7 total cells. • 6) Add 20 µL of Pan T Cell MicroBead Cocktail per 10^7 total cells. • 7) Mix well and incubate for 15 minutes in the refrigerator (ice). • 8) Proceed to subsequent magnetic cell separation.
Subsequent manual cell separation: • 1) Place LS Column in the magnetic field of a suitable MACS Separator. For details refer to the respective MACS Column data sheet. • 2) Prepare column by rinsing with 3 mL of buffer. • 3) Apply cell suspension onto the column. Collect flow-through, which represents the enriched T cells. • 4) Wash column with 5 mL of buffer. Collect unlabeled cells that pass through, representing the enriched T cells.
Reminder: Always wait until the column reservoir is empty before proceeding to the next step. • 5. Pan T cell FACS: • 1) Take out 50 µL of PBMC and Pan T cells to FACS tubes respectively. • 2) Incubate cells with anti-human CD3/CD4/CD8 antibodies (1 µL/1 µL/1 µL /tube) for 20 min at 4° C. For unstained control, incubate cells with FACS staining buffer. • 3) Wash 2 times with cold staining buffer (PBS with 0.2%BSA and 1 mM EDTA). • 4) Run FACS. Gate CD3^+, CD3^+CD4^+, and CD3^+CD8^+ population for % analysis. • 5) If the purity of Pan T cells is higher than 90%, dilute cell suspension to 1 million cells/mL with the appropriate volume of Cell Culture Media. • 6) Dispense the cell suspension into a sterile, disposable reservoir for future use.
Procedures for preparation of compounds and anti-human CD3/CD28 (Day 0): • 1. Compound preparation • Compound serial dilution (source plate 1000×) • Compounds are solubilized in 100% DMSO to a concentration of 10 mM. Then they were 3-fold serially diluted to 8-point doses. • 4× Compound dose preparation (inter plate: Corning-3599): • Prepare 4× compound solution in culture medium. Pipet up and down. For the ZPE control, prepare 0.4% DMSO (4×) in culture medium. For the HPE control, prepare 0.4 µM of RGT003-026 (4×) in culture medium. • 2. Anti-human CD3 (stock conc. 6.76 mg/ml): stored at 4° C. • 1) Dilute anti-human CD3 with PBS to final conc. of 0.5 µg/mL. • 2) Add 50 µL /well of CD3 to each well, except for the positive and negative control wells. […] Rinse each well twice with 200 µL of sterile PBS each time. • 3. […]

The structures appear in SMILES notation.

Chain of HPK1 (Q92918 whole entry): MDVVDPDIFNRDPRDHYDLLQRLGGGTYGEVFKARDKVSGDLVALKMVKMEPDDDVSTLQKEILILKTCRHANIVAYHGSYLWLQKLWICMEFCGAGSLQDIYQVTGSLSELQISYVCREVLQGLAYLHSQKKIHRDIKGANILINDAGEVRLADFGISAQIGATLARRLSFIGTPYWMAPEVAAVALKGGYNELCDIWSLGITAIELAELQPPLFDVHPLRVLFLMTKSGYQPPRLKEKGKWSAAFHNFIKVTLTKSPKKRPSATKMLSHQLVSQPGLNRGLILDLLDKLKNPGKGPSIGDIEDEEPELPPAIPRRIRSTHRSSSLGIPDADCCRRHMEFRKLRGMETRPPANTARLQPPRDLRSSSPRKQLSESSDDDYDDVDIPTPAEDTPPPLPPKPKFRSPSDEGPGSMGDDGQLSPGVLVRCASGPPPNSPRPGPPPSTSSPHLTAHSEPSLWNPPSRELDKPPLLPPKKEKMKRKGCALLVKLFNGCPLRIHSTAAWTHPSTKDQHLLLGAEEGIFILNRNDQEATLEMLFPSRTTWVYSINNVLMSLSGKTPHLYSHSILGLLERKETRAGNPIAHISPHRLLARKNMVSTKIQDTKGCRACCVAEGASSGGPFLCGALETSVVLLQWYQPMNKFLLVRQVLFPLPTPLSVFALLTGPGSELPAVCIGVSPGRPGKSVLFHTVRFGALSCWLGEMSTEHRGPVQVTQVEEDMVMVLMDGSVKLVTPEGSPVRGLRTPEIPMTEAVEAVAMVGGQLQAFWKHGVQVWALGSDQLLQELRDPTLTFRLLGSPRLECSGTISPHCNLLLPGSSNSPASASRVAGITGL

What is called IC50 is the concentration that gives 50% inhibition. Broadly, the EC50 is the midpoint of the concentration-response curve. Take `COc1cc2c(cc1Nc1ncc(Cl)c(N3CC(C)(CC(=O)O)c4cc(F)ccc43)n1)CN(C)CC2` (centres unmarked) [Compound 9, reference compound]: in assay [1], the IC50 amounted to 1.1 nM. The concentration for a half-maximal effect (EC50) in assay [2] (Homo sapiens, T-cell) was found to be 68 nM. In assay [2], the “Human Pan T cells EC2x (nM, IL-2)” value was 62 (N = 2) nM and the Max fold change was 3.24 (N = 2).
For `COc1cc2c(cc1Nc1ncc(Cl)c(N3C[C@@](C)(CC(=O)O)c4ccccc43)n1)CN(C)CC2` (single isomer, unassigned) [Example 3, (S)-2-(1-(5-chloro-2-((6-methoxy-2-methyl-1,2,3,4-tetrahydroisoquinolin-7-yl)amino)pyrimidin-4-yl)-3-methylindolin-3-yl)acetic acid or (R)-2-(1-(5-chloro-2-((6-methoxy-2-methyl-1,2,3,4-tetrahydroisoquinolin-7-yl)amino)pyrimidin-4-yl)-3-methylindolin-3-yl)acetic acid], the IC50 in assay [1] amounted to 24 nM. Also, in assay [2], the 50% effective concentration (EC50) turned out to be 911 nM; the “Human Pan T cells EC2x (nM, IL-2)” value was > 5760 (N = 2) nM; the Max fold change was 1.96 (N = 2).
